Data taken from US6429227B1, “Hydroxyeicosatetraenoate salts, compositions and methods of use in treating dry eye disorders” (Alcon Universal Ltd., priority 1999, dated 2002).
Blank lines part the entries; values can stand above or below the compound they belong to.

Experiments:
Format in all cases: physicochemical
[1] = Stability of samples dried from ethanolic stock in amber glass vials at room temperature under ambient atmosphere, HPLC (Example 7); details: for % Remaining: dried film
From the text: Ethanolic stock solutions of 15(S)-HETE free acid and 15(S)-HETE free acid with an approximately equimolar amount of sodium hydroxide (to form the sodium salt in situ) were aliquoted to amber glass vials and dried under a stream of helium. The vials were stored at room temperature under ambient atmosphere. At various times, two vials of each were reconstituted with an aliquot of 50/50 acetonitrile/water and assayed by HPLC for 15(S)-HETE. The results are shown in Table 2 and illustrated in FIG. 1: […]

[2] = Stability of neat 15(S)-HETE free acid vs sodium salt, four days under ambient air, HPLC (Example 6)
Experimental: 15(S)-HETE free acid and 15(S)-HETE-sodium salt were stored under ambient air for four days and exposed to either a temperature of 40° C. in total darkness, or ambient temperature and 300 foot-candles of light (approximately Standard Fluorescent Room Light). Following the four day exposure, aliquots of the samples were analyzed by HPLC for percent remaining HETE and results are reported in Table 1: […]

[3] = Storage stability of 15(S)-HETE-sodium salt as neat solid or as solution in absolute ethanol, HPLC (Example 8)
Experimental: 15(S)-HETE-sodium salt as the neat solid under argon or as solutions in absolute ethanol under ambient atmosphere were stored in amber glass vials in a −20° C. freezer or at room temperature. At various times, the samples were analyzed by HPLC for percent of initial 15(S)-HETE remaining.

% Remaining ([1]; 0 hours): 100% | % Remaining ([1]; 5 hours): 4% | % Remaining ([1]; 24 hours): 0% | % Remaining ([1]; 55 hours): 0% | % Remaining ([1]; 72 hours): 0% | % of Initial Amount Remaining ([2]; 40° C., dark): 0% | % of Initial Amount Remaining ([2]; ambient temp., 300 F-C light): 2%
Structure (SMILES): CCCCC[C@H](O)/C=C/C=C\C/C=C\C/C=C\CCCC(=O)O [15(S)-HETE-free acid, 15(S)-HETE free acid, reference compound]

% Remaining ([1]; 0 hours): 100% | % Remaining ([1]; 5 hours): 94% | % Remaining ([1]; 24 hours): 79% | % Remaining ([1]; 55 hours): 66% | % Remaining ([1]; 72 hours): 65% | % of Initial ([3]; 1 mg/mL in absolute ethanol, ambient atmosphere, room temp., 2.0 weeks): 101% | % of Initial ([3]; 1 mg/mL in absolute ethanol, ambient atmosphere, room temp., 4.4 weeks): 101% | % of Initial ([3]; 1 mg/mL in absolute ethanol, ambient atmosphere, room temp., 6.0 weeks): 101% | % of Initial ([3]; 1 mg/mL in absolute ethanol, ambient atmosphere, room temp., 8.4 weeks): 101% | % of Initial ([3]; 1 mg/mL in absolute ethanol, ambient atmosphere, −20° C. freezer, 2.0 weeks): 102% | % of Initial ([3]; 1 mg/mL in absolute ethanol, ambient atmosphere, −20° C. freezer, 4.4 weeks): 102% | % of Initial ([3]; 1 mg/mL in absolute ethanol, ambient atmosphere, −20° C. freezer, 6.0 weeks): 101% | % of Initial ([3]; 1 mg/mL in absolute ethanol, ambient atmosphere, −20° C. freezer, 8.4 weeks): 101% | % of Initial ([3]; 10 mg/mL in absolute ethanol, ambient atmosphere, room temp., 2.0 weeks): 101% | % of Initial ([3]; 10 mg/mL in absolute ethanol, ambient atmosphere, room temp., 4.4 weeks): 101% | % of Initial ([3]; 10 mg/mL in absolute ethanol, ambient atmosphere, room temp., 6.0 weeks): 101% | % of Initial ([3]; 10 mg/mL in absolute ethanol, ambient atmosphere, room temp., 8.4 weeks): 100% | % of Initial ([3]; 10 mg/mL in absolute ethanol, ambient atmosphere, −20° C. freezer, 2.0 weeks): 101% | % of Initial ([3]; 10 mg/mL in absolute ethanol, ambient atmosphere, −20° C. freezer, 4.4 weeks): 102% | % of Initial ([3]; 10 mg/mL in absolute ethanol, ambient atmosphere, −20° C. freezer, 6.0 weeks): 101% | % of Initial ([3]; 10 mg/mL in absolute ethanol, ambient atmosphere, −20° C. freezer, 8.4 weeks): 101% | % of Initial ([3]; solid under argon, room temp., 2.0 weeks): 72% | % of Initial ([3]; solid under argon, room temp., 4.4 weeks): 61% | % of Initial ([3]; solid under argon, room temp., 6.0 weeks): 42% | % of Initial ([3]; solid under argon, room temp., 8.4 weeks): 28% | % of Initial ([3]; solid under argon, −20° C. freezer, 2.0 weeks): 99% | % of Initial ([3]; solid under argon, −20° C. freezer, 4.4 weeks): 97% | % of Initial ([3]; solid under argon, −20° C. freezer, 6.0 weeks): 95% | % of Initial ([3]; solid under argon, −20° C. freezer, 8.4 weeks): 92% | % of Initial Amount Remaining ([2]; 40° C., dark): 86% | % of Initial Amount Remaining ([2]; ambient temp., 300 F-C light): 58%
Structure (SMILES): CCCCC[C@H](O)/C=C/C=C\C/C=C\C/C=C\CCCC(=O)[O-].[Na+] [15(S)-HETE-sodium salt, 5,8,11,13-Eicosatetraenoic acid, 15-hydroxy-[15S-(5Z,8Z,11Z,13E)]-sodium salt]
stability relative to the corresponding free acid (in words) ([1]; up to 72 hours): more stable than the corresponding free acid
